The supplement of paper PMC10307832

Legend:
Test in all cases: relative viability (nuclei count vs DMSO), 5 days (fraction); higher = more cells survive
[1] = compound: CN(c1ncccc1CNc1nc(Nc2ccc3c(c2)CC(=O)N3)ncc1C(F)(F)F)S(C)(=O)=O + CC(=O)Nc1cccc(-n2c(=O)n(C3CC3)c(=O)c3c(Nc4ccc(I)cc4F)n(C)c(=O)c(C)c32)c1 [Trametinib] (partner 0.02 µM)
Summary of the method: (§1)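 Dosing by pin tool came one day after lung cancer cell lines were seeded in 1536-well plates, using either one drug or a fixed anchor-drug dose plus five library-drug doses (not always all listed) in √10 steps. After 5 days, nuclei were counted on 4× images. Relative viability is treated-well nuclei count divided by vehicle-well nuclei count, and values are medians of duplicate plates.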

[2] = compound: CN(c1ncccc1CNc1nc(Nc2ccc3c(c2)CC(=O)N3)ncc1C(F)(F)F)S(C)(=O)=O + CC(C)C[C@H](NC(=O)[C@H](Cc1ccccc1)NC(=O)c1cnccn1)B(O)O [Bortezomib] (partner 0.002 µM)
Summary of the method: as §1

[3] = compound: CN(c1ncccc1CNc1nc(Nc2ccc3c(c2)CC(=O)N3)ncc1C(F)(F)F)S(C)(=O)=O + CS(=O)(=O)N1CCN(Cc2cc3nc(-c4cccc5[nH]ncc45)nc(N4CCOCC4)c3s2)CC1 [Pictilisib] (partner 1 µM)
Summary of the method: as §1

[4] = compound: CN(c1ncccc1CNc1nc(Nc2ccc3c(c2)CC(=O)N3)ncc1C(F)(F)F)S(C)(=O)=O + O=C(c1cc(Cc2n[nH]c(=O)c3ccccc23)ccc1F)N1CCN(C(=O)C2CC2)CC1 [Olaparib] (partner 8 µM)
Summary of the method: as §1

Cell Line | relative viability ([1]; first compound 0.01 µM) | relative viability ([1]; first compound 0.03162 µM) | relative viability ([1]; first compound 0.1 µM) | relative viability ([1]; first compound 0.3162 µM) | relative viability ([1]; first compound 1 µM) | relative viability ([2]; first compound 0.01 µM) | relative viability ([2]; first compound 0.03162 µM) | relative viability ([2]; first compound 0.1 µM) | relative viability ([2]; first compound 0.3162 µM) | relative viability ([2]; first compound 1 µM) | relative viability ([3]; first compound 0.03162 µM) | relative viability ([3]; first compound 0.1 µM) | relative viability ([3]; first compound 0.3162 µM) | relative viability ([3]; first compound 1 µM) | relative viability ([4]; first compound 0.01 µM) | relative viability ([4]; first compound 0.03162 µM) | relative viability ([4]; first compound 0.1 µM) | relative viability ([4]; first compound 0.3162 µM) | relative viability ([4]; first compound 1 µM) | relative viability ([3]; first compound 0.01 µM)
LCLC-97TM1 | 0.207 | 0.189 | 0.184 | 0.206 | 0.124 | 1.04 | 0.74 | 0.439 | 0.559 | 0.526 | 0.23 | 0.196 | 0.159 | 0.148 | 0.45 | 0.414 | 0.401 | 0.291 | 0.261 | 
LCLC-103H | 0.674 | 0.687 | 0.675 | 0.704 | 0.673 | 1.13 | 1.05 | 1.18 | 0.937 | 1.02 | 0.561 | 0.6 | 0.536 | 0.577 | 0.724 | 0.742 | 0.78 | 0.693 | 0.669 | 0.558
LOU-NH91 | 0.802 | 0.793 | 0.75 | 0.819 | 0.787 | 0.497 | 0.47 | 0.482 | 0.482 | 0.459 | 0.548 | 0.504 | 0.551 | 0.575 | 0.888 | 0.92 | 0.883 | 0.972 | 0.858 | 0.519
LU99A | 0.559 | 0.663 | 0.564 | 0.65 | 0.574 | 1.15 | 1.26 | 1.09 | 1.43 | 1.22 | 0.357 | 0.342 | 0.373 | 0.335 | 0.26 | 0.305 | 0.302 | 0.261 | 0.236 | 0.314
LXF-289 | 0.706 | 0.693 | 0.648 | 0.664 | 0.633 | 1.05 | 1.01 | 0.991 | 0.989 | 0.978 | 0.937 | 0.75 | 0.677 | 0.737 | 1.1 | 1.21 | 1.04 | 1.11 | 1.02 | 0.834
NCI-H23 | 0.392 | 0.319 | 0.388 | 0.466 | 0.404 | 1.22 | 1.38 | 1.09 | 1.08 | 1.03 | 0.492 | 0.564 | 0.495 | 0.441 | 0.337 | 0.345 | 0.389 | 0.319 | 0.306 | 0.554
NCI-H322M | 0.432 | 0.518 | 0.522 | 0.479 | 0.51 | 1.26 | 1.41 |  | 1.38 | 1.44 | 0.48 |  | 0.593 | 0.553 | 0.741 | 0.774 | 0.739 | 0.878 | 0.832 | 0.495
NCI-H441 | 0.457 | 0.461 | 0.402 | 0.336 | 0.403 | 0.68 | 0.859 | 0.36 | 0.542 | 0.377 | 0.516 | 0.527 | 0.527 | 0.508 | 0.633 | 0.592 | 0.466 | 0.486 | 0.408 | 0.554
NCI-H460 | 0.108 | 0.139 | 0.2 | 0.185 | 0.129 | 1.18 | 1.39 | 1.13 | 1.07 | 1.13 | 0.425 | 0.437 | 0.367 | 0.418 | 0.443 | 0.573 | 0.464 | 0.464 | 0.396 | 0.338
NCI-H520 | 0.714 | 0.666 | 0.646 | 0.7 | 0.705 | 0.695 | 0.513 | 0.489 | 1.13 | 0.635 | 0.386 | 0.322 | 0.277 | 0.379 | 0.325 | 0.318 | 0.35 | 0.394 | 0.423 | 0.285
NCI-H596 | 0.932 | 0.779 | 0.559 | 0.781 | 0.728 | 0.793 | 0.973 | 0.93 | 1.1 | 1.28 | 0.37 | 0.428 | 0.456 | 0.37 | 0.634 | 0.655 | 0.664 | 0.674 | 0.723 | 0.409
NCI-H647 | 0.582 | 0.594 | 0.459 | 0.463 | 0.414 | 0.934 | 1.52 | 1.04 | 0.931 | 0.886 | 0.365 | 0.38 |  | 0.594 | 0.528 | 0.494 | 0.708 | 0.597 | 0.488 | 0.529
NCI-H650 | 1.02 | 1.01 | 0.994 | 1.02 | 0.88 | 0.69 | 0.846 | 0.843 | 0.692 | 0.649 | 1.15 | 0.671 | 0.639 | 0.842 | 0.372 | 0.376 | 0.389 | 0.367 | 0.358 | 0.961
NCI-H661 | 0.549 | 0.729 | 0.577 | 0.615 | 0.608 | 0.928 | 1.06 | 0.717 | 0.837 | 1.04 | 0.335 | 0.405 | 0.378 | 0.383 | 0.727 | 0.85 | 0.74 | 0.771 | 0.7 | 0.578
NCI-H727 | 0.386 | 0.364 | 0.404 | 0.424 | 0.333 | 0.897 | 1 | 0.73 | 0.765 | 0.731 | 0.269 | 0.393 | 0.31 | 0.344 | 0.776 | 0.707 | 0.77 | 0.635 | 0.715 | 0.459
